Molecular target: RORγ (Homo sapiens (Human), UniProt P51449)
Test: Reporter Gene Assay (RGA): inhibition of RORγ transactivation of a luciferase reporter
Type: cell-based
Details: transiently transfected HEK 293 cells (Gal4DBD hRORC LBD), 20-24 h incubation

Sequence of RORγ (P51449 269-508): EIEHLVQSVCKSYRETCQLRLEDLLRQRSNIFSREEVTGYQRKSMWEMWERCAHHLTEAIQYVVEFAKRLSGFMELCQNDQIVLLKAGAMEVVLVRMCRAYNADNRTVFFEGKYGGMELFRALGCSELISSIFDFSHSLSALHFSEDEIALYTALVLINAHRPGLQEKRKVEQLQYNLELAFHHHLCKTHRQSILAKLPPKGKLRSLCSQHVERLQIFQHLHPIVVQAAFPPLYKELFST

SMILES | IC50
CNS(=O)(=O)c1ccc(CNc2nc3cnc(-c4c(C)ncnc4C4CC4)nc3n([C@@H](C)C3CC3)c2=O)cc1 [Example 134] | 400 nM
CCS(=O)(=O)c1ccc(CNc2nc3cnc(-c4c(OC)ncnc4C4CC4)nc3n(C(C)C)c2=O)cc1 [Example 143] | 134 nM
CCS(=O)(=O)c1ccc(CNc2nc3cnc(-c4c(C)ncnc4C4CC4)nc3n([C@@H]3C[C@H]4CC[C@@H]3C4)c2=O)nc1 [Example 220] | 390 nM
